Assay results: patent US11744844B2, “Selective estrogen receptor degraders” (Eli Lilly and Company, priority 2021, dated 2023)
Counter-ions that a name gives are not always drawn.

Key:
[1] = molecular target: T1, Y537N mutant ERα receptor (Homo sapiens, UniProt P03372, Y537N); test: PRα inhibition (ERα functional antagonism) cell assay in MCF7-ESR1 Y537N 682 CRISPR cells; assay type: cell-based; settings: MCF7 Y537N 682 CRISPR cells (heterozygous mutant), 72 hours; read-out: Relative IC50, PRα inhibition (ERα functional antagonism)
T1 construct: generated by CRISPR/Cas9 gene editing of ESR1 gene in MCF7 cells, clone #682; endogenous in cells; host or cells: MCF7-ESR1 Y537N-682 (CRISPR/Cas9-edited MCF7, clone #682)
T1 sequence (P03372 1-595 Y537N): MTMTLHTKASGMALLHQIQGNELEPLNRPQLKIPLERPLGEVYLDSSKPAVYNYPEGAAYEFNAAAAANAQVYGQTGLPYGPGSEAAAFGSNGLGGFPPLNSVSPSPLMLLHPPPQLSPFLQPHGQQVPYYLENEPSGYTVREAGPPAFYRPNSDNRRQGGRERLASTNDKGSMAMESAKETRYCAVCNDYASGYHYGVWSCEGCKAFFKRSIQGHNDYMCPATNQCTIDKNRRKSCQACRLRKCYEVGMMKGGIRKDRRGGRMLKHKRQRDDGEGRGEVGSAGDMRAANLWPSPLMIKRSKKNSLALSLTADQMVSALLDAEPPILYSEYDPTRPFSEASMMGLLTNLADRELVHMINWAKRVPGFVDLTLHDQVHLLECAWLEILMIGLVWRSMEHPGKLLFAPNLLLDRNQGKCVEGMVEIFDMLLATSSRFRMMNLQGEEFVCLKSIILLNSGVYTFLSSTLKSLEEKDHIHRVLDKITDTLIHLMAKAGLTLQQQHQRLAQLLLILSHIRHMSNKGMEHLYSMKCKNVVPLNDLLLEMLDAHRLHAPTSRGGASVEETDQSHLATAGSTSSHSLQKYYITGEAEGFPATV
Description: The purpose of the following PRα inhibition (ERα functional antagonism) cell assay is to determine the antagonistic activity of a test compound against the Y537N mutant ERα receptor. An antagonist in this assay is expected to block the function of the ERα receptor.
Culture MCF7-ESR1 Y537N-682 (generated by CRISPR/Cas9 gene editing of ESR1 gene in MCF7 cells, clone #682) in DMEM media supplemented with 10% FBS and 1% penicillin/streptomycin antibiotics and plate the cells (prior to becoming 70% confluent) in 384-well flat-bottom plates at a density of 4,000 cells per well in DMEM phenol red free media 10% FBS (20 μL volume) (charcoal stripped). Incubate the cells overnight in a cell culture incubator (5% CO2, 95% relative humidity and 37° C.) and allow the cells to attach to the plate. The following day dose the cells with the test compound. Use an Echo 555 acoustic dispenser to prepare compound serial dilutions (1:3) in a range from 6 μM to 0.0003 μM. […]
The following day wash the cells with PBS […] (2×20 μL) and incubate with secondary antibody (20 μL/well) (1:1000 dilution, Goat anti-rabbit IgM ALEXA FLUOR™ 488) in PBS 1% BSA for 105 minutes at room temperature. […] Scan the plates with ACUMEN EXPLORER™ [Laser-scanning fluorescence microplate cytometer manufactured by TTP LABTECH LTD] to measure PRα. […]

[2] = test system: MCF7 ESR1 Y537N mutant cells; test: Cell proliferation assay in MCF7-ESR1 Y537N-682; assay type: cell-based; settings: Homo sapiens, 168 h; MCF7-ESR1 Y537N-682, seven days; read-out: Relative IC50 MCF7 ESR1 Y537N mutant cells, cell proliferation
Method: The purpose of the following cell proliferation assays generally is to detect whether a test compound has effects on cell proliferation.
Seed MCF7 (purchased from ATCC HTB-22) cells at a density of 2,000 cells per well in DMEM phenol red free media 10% FBS (20 μL volume) (charcoal stripped) into a clear bottom 384-well cell culture plate. Plate MCF7-ESRY537N-682 (generated by CRISPR/Cas9 gene editing of ESr1 gene in MCF7 cells, clone #682) in DMEM media supplemented with 10% FBS, and 1% penicillin/streptomycin antibiotics at a density of 1000 cells per well. Incubate the plates at 37° C. and 5% CO2. The following day dose the cells with the test compound. Use an Echo 555 acoustic dispenser to prepare test compound serial dilutions (1:3) in a range from 60 μM to 0.003 μM. Dose the cells with the addition of 5 μL from the serial dilution plate to the cell plate, producing a final DMSO concentration of 0.2% with a final test compound concentration dose range between 20 and 0.001 μM. For the maximum point use media containing 0.2% of DMSO and for the minimum point use fulvestrant diluted at 2 μM final concentrations in the growth media containing 0.2% DMSO. After dosing with the test compound, incubate the cell plates at 37° C. and 5% CO2. […] Scan the plates with ACUMEN EXPLORER™ (Laser-scanning fluorescence microplate cytometer manufactured by TTP LABTECH LTD).

Structure (SMILES)	IC50 [1]	IC50 [2]
O=S(=O)(O)Oc1ccc2c3c(cnc2c1)-c1ccc(C(F)(F)F)cc1O[C@@H]3c1ccc(OCCN2CC(CF)C2)cc1 [Example 1, [(5R)-5-[4-[2-[3-(Fluoromethyl)azetidin-1-yl]ethoxy]phenyl]-8-(trifluoromethyl)-5H-chromeno[4,3-c]quinolin-2-yl]hydrogen sulfate]	330 ± 116 nM	702 ± 389 nM
O=C(O)[C@H]1O[C@@H](Oc2ccc3c4c(cnc3c2)-c2ccc(C(F)(F)F)cc2O[C@@H]4c2ccc(OCCN3CC(CF)C3)cc2)[C@H](O)[C@@H](O)[C@@H]1O [Example 2, (2S,3S,4S,5R,6S)-6-[[(5R)-5-[4-[2-[3-(Fluoromethyl)azetidin-1-yl]ethoxy]phenyl]-8-(trifluoromethyl)-5H-chromeno[4,3-c]quinolin-2-yl]oxy]-3,4,5-trihydroxy-tetrahydropyran-2-carboxylic acid]	470 ± 58 nM	1500 ± 966 nM
